Converted amounts (≈) assume the structure as drawn.
Assays:
Format in all cases: functional
Candida albicans [1] = experiment: Antifungal activity against Candida albicans isolate 6 by broth microdilution method
Candida albicans [2] = experiment: Antifungal activity against Candida albicans isolate 14 by broth microdilution method
Candida albicans [3] = experiment: Antifungal activity against Candida albicans isolate 177 by broth dilution method
Candida albicans [4] = experiment: Antifungal activity against Candida albicans isolate 12 harboring ERG3 W332R mutant gene by broth microdilution method
Candida albicans [5] = experiment: Antifungal activity against Candida albicans isolate 488 harboring ERG3 H243N, T330A, A351V and ERG11 D225G, E266D, E391G, V488I mutant genes by broth microdilution method
Candida albicans [6] = experiment: Antifungal activity against Candida albicans isolate 490 harboring ERG3 D147G, T330A, A351V and ERG11 F72S, T229A, E266D, N440S, V488I, R523G mutant genes by broth microdilution method
Candida albicans [7] = experiment: Antifungal activity against Candida albicans isolate 1008 harboring ERG3 K97E, L193P, V237A, A351V, A353T and ERG11 E266D mutant genes by broth microdilution method
Candida albicans [8] = experiment: Antifungal activity against Candida albicans isolate 6 assessed as ergosterol content in total sterol composition at 0.5 times MIC by GC-MS analysis
Candida albicans [9] = experiment: Antifungal activity against Candida albicans isolate 14 assessed as ergosterol content in total sterol composition at 0.5 times MIC by GC-MS analysis
Candida albicans [10] = experiment: Antifungal activity against Candida albicans isolate 177 assessed as ergosterol content in total sterol composition at 0.5 times MIC by GC-MS analysis
Candida albicans [11] = experiment: Antifungal activity against Candida albicans isolate 12 harboring ERG3 W332R mutant gene assessed as ergosterol content in total sterol composition at 0.5 times MIC by GC-MS analysis
Candida albicans [12] = experiment: Antifungal activity against Candida albicans isolate 488 harboring ERG3 H243N, T330A, A351V and ERG11 D225G, E266D, E391G, V488I mutant genes assessed as ergosterol content in total sterol composition at 0.5 times MIC by GC-MS analysis
Candida albicans [13] = experiment: Antifungal activity against Candida albicans isolate 490 harboring ERG3 D147G, T330A, A351V and ERG11 F72S, T229A, E266D, N440S, V488I, R523G mutant genes assessed as ergosterol content in total sterol composition at 0.5 times MIC by GC-MS analysis
Candida albicans [14] = experiment: Antifungal activity against Candida albicans isolate 1008 harboring ERG3 K97E, L193P, V237A, A351V, A353T and ERG11 E266D mutant genes assessed as ergosta 7,22-dienol content in total sterol composition at 0.5 times MIC by GC-MS analysis
Candida albicans [15] = experiment: Antifungal activity against Candida albicans isolate 177 assessed as 14alpha-methyl fecosterol content in total sterol composition at 0.5 times MIC by GC-MS analysis
Candida albicans [16] = experiment: Antifungal activity against Candida albicans isolate 12 harboring ERG3 W332R mutant gene assessed as 14alpha-methyl fecosterol content in total sterol composition at 0.5 times MIC by GC-MS analysis
Candida albicans [17] = experiment: Antifungal activity against Candida albicans isolate 488 harboring ERG3 H243N, T330A, A351V and ERG11 D225G, E266D, E391G, V488I mutant genes assessed as 14alpha-methyl fecosterol content in total sterol composition at 0.5 times MIC by GC-MS analysis
Candida albicans [18] = experiment: Antifungal activity against Candida albicans isolate 490 harboring ERG3 D147G, T330A, A351V and ERG11 F72S, T229A, E266D, N440S, V488I, R523G mutant genes assessed as 14alpha-methyl fecosterol content in total sterol composition at 0.5 times MIC by GC-MS analysis
Candida albicans [19] = experiment: Antifungal activity against Candida albicans isolate 1008 harboring ERG3 K97E, L193P, V237A, A351V, A353T and ERG11 E266D mutant genes assessed as 14alpha-methyl fecosterol content in total sterol composition at 0.5 times MIC by GC-MS analysis
Candida albicans [20] = experiment: Antifungal activity against Candida albicans isolate 6 assessed as 14alpha-methylergosta-8,24(28)-dien-3beta,6alpha-diol content in total sterol composition at 0.5 times MIC by GC-MS analysis
Candida albicans [21] = experiment: Antifungal activity against Candida albicans isolate 14 assessed as 14alpha-methylergosta-8,24(28)-dien-3beta,6alpha-diol content in total sterol composition at 0.5 times MIC by GC-MS analysis
Candida albicans [22] = experiment: Antifungal activity against Candida albicans isolate 177 assessed as 14alpha-methylergosta-8,24(28)-dien-3beta,6alpha-diol content in total sterol composition at 0.5 times MIC by GC-MS analysis
Candida albicans [23] = experiment: Antifungal activity against Candida albicans isolate 12 harboring ERG3 W332R mutant gene assessed as 14alpha-methylergosta-8,24(28)-dien-3beta,6alpha-diol content in total sterol composition at 0.5 times MIC by GC-MS analysis
Candida albicans [24] = experiment: Antifungal activity against Candida albicans isolate 490 harboring ERG3 D147G, T330A, A351V and ERG11 F72S, T229A, E266D, N440S, V488I, R523G mutant genes assessed as 14alpha-methylergosta-8,24(28)-dien-3beta,6alpha-diol content in total sterol composition at 0.5 times MIC by GC-MS analysis
Candida albicans [25] = experiment: Antifungal activity against Candida albicans isolate 14 assessed as lanosterol/obtusifoliol content in total sterol composition at 0.5 times MIC by GC-MS analysis
Candida albicans [26] = experiment: Antifungal activity against Candida albicans isolate 12 harboring ERG3 W332R mutant gene assessed as lanosterol/obtusifoliol content in total sterol composition at 0.5 times MIC by GC-MS analysis
Candida albicans [27] = experiment: Antifungal activity against Candida albicans isolate 488 harboring ERG3 H243N, T330A, A351V and ERG11 D225G, E266D, E391G, V488I mutant genes assessed as lanosterol/obtusifoliol content in total sterol composition at 0.5 times MIC by GC-MS analysis
Candida albicans [28] = experiment: Antifungal activity against Candida albicans isolate 1008 harboring ERG3 K97E, L193P, V237A, A351V, A353T and ERG11 E266D mutant genes assessed as lanosterol/obtusifoliol content in total sterol composition at 0.5 times MIC by GC-MS analysis
Candida albicans [29] = experiment: Antifungal activity against Candida albicans isolate 6 assessed as eburicol content in total sterol composition at 0.5 times MIC by GC-MS analysis
Candida albicans [30] = experiment: Antifungal activity against Candida albicans isolate 177 assessed as eburicol content in total sterol composition at 0.5 times MIC by GC-MS analysis
Candida albicans [31] = experiment: Antifungal activity against Candida albicans isolate 12 harboring ERG3 W332R mutant gene assessed as eburicol content in total sterol composition at 0.5 times MIC by GC-MS analysis
Candida albicans [32] = experiment: Antifungal activity against Candida albicans isolate 488 harboring ERG3 H243N, T330A, A351V and ERG11 D225G, E266D, E391G, V488I mutant genes assessed as eburicol content in total sterol composition at 0.5 times MIC by GC-MS analysis
Candida albicans [33] = experiment: Antifungal activity against Candida albicans isolate 1008 harboring ERG3 K97E, L193P, V237A, A351V, A353T and ERG11 E266D mutant genes assessed as eburicol content in total sterol composition at 0.5 times MIC by GC-MS analysis
Candida albicans [34] = experiment: Antifungal activity against Candida albicans isolate 6 by broth microdilution method in presence of 10 uM drug efflux inhibitor FK506
Candida albicans [35] = experiment: Antifungal activity against Candida albicans isolate 14 by broth microdilution method in presence of 10 uM drug efflux inhibitor FK506
Candida albicans [36] = experiment: Antifungal activity against Candida albicans isolate 177 by broth dilution method in presence of 10 uM drug efflux inhibitor FK506
Candida albicans [37] = experiment: Antifungal activity against Candida albicans isolate 12 harboring ERG3 W332R mutant gene by broth microdilution method in presence of 10 uM drug efflux inhibitor FK506
Candida albicans [38] = experiment: Antifungal activity against Candida albicans isolate 488 harboring ERG3 H243N, T330A, A351V and ERG11 D225G, E266D, E391G, V488I mutant genes by broth microdilution method in presence of 10 uM drug efflux inhibitor FK506
Candida albicans [39] = experiment: Antifungal activity against Candida albicans isolate 490 harboring ERG3 D147G, T330A, A351V and ERG11 F72S, T229A, E266D, N440S, V488I, R523G mutant genes by broth microdilution method in presence of 10 uM drug efflux inhibitor FK506
Candida albicans [40] = experiment: Antifungal activity against Candida albicans isolate 1008 harboring ERG3 K97E, L193P, V237A, A351V, A353T and ERG11 E266D mutant genes by broth microdilution method in presence of 10 uM drug efflux inhibitor FK506

CC(=O)N1CCN(c2ccc(OCC3COC(Cn4ccnc4)(c4ccc(Cl)cc4Cl)O3)cc2)CC1 (centres undefined) [KETOCONAZOLE]
MIC (Candida albicans [1]): 16 µg/mL (≈ 30.1 µM) | MIC (Candida albicans [2]): 0.0625 µg/mL (≈ 0.118 µM) | MIC (Candida albicans [3]): 16 µg/mL (≈ 30.1 µM) | MIC (Candida albicans [4]): > 16 µg/mL | MIC (Candida albicans [5]): 8 µg/mL (≈ 15.1 µM) | MIC (Candida albicans [6]): 8 µg/mL (≈ 15.1 µM) | MIC (Candida albicans [7]): > 16 µg/mL

C[C@@H](c1ncncc1F)[C@](O)(Cn1cncn1)c1ccc(F)cc1F [VORICONAZOLE]
Activity (Candida albicans [8]): 46.1% | Activity (Candida albicans [9]): 47.3% | Activity (Candida albicans [10]): 45% | Activity (Candida albicans [11]): 2.9% | Activity (Candida albicans [12]): 8% | Activity (Candida albicans [13]): 6.3% | Activity (Candida albicans [14]): 2.2% | Activity (Candida albicans [15]): 2.9% | Activity (Candida albicans [16]): 69.2% | Activity (Candida albicans [17]): 57.2% | Activity (Candida albicans [18]): 69.1% | Activity (Candida albicans [19]): 65.1% | Activity (Candida albicans [20]): 37.2% | Activity (Candida albicans [21]): 28.6% | Activity (Candida albicans [22]): 35.4% | Activity (Candida albicans [23]): 1.8% | Activity (Candida albicans [24]): 13.5% | Activity (Candida albicans [25]): 24.1% | Activity (Candida albicans [26]): 16.2% | Activity (Candida albicans [27]): 15.8% | Activity (Candida albicans [28]): 19% | Activity (Candida albicans [29]): 4.8% | Activity (Candida albicans [30]): 5% | Activity (Candida albicans [31]): 9.9% | Activity (Candida albicans [32]): 7.5% | Activity (Candida albicans [33]): 13.7% | MIC (Candida albicans [1]): 16 µg/mL (≈ 45.8 µM) | MIC (Candida albicans [2]): 0.0625 µg/mL (≈ 0.179 µM) | MIC (Candida albicans [3]): 16 µg/mL (≈ 45.8 µM) | MIC (Candida albicans [4]): > 16 µg/mL | MIC (Candida albicans [5]): > 16 µg/mL | MIC (Candida albicans [6]): > 16 µg/mL | MIC (Candida albicans [7]): > 16 µg/mL | MIC (Candida albicans [34]): < 0.0625 µg/mL | MIC (Candida albicans [35]): < 0.0625 µg/mL | MIC (Candida albicans [36]): < 0.0625 µg/mL | MIC (Candida albicans [37]): > 16 µg/mL | MIC (Candida albicans [38]): 0.0625 µg/mL | MIC (Candida albicans [39]): 0.0625 µg/mL | MIC (Candida albicans [40]): > 16 µg/mL

Clc1ccccc1C(c1ccccc1)(c1ccccc1)n1ccnc1 [CLOTRIMAZOLE]
MIC (Candida albicans [1]): 1 µg/mL (≈ 2.9 µM) | MIC (Candida albicans [2]): 0.0625 µg/mL (≈ 0.181 µM) | MIC (Candida albicans [3]): 1 µg/mL (≈ 2.9 µM) | MIC (Candida albicans [4]): 1 µg/mL (≈ 2.9 µM) | MIC (Candida albicans [5]): 1 µg/mL (≈ 2.9 µM) | MIC (Candida albicans [6]): 1 µg/mL (≈ 2.9 µM) | MIC (Candida albicans [7]): 1 µg/mL (≈ 2.9 µM)
